Data as given in the NIST ThermoML archive (doi:10.1021/acs.jced.8b01097).

Test: xn = mol fraction of the nth substance listed
Details: 85 kPa, Liquid; for viscosity: Concentric cylinders viscometry; for mass density: Vibrating tube method

NCCCO [3-amino-1-propanol] + CCC(C)O
Details | mass density [kg/m3] | viscosity [mPa·s]
293.15 K, x2 = 0 | 987.8 | 37.33
293.15 K, x2 = 0.081 | 971.2 | 30.36
293.15 K, x2 = 0.1607 | 955.5 | 25.31
293.15 K, x2 = 0.2395 | 940.2 | 20.96
293.15 K, x2 = 0.3499 | 919.3 | 15.85
293.15 K, x2 = 0.4394 | 902.8 | 12.63
293.15 K, x2 = 0.5602 | 881 | 9.361
293.15 K, x2 = 0.658 | 863.9 | 7.574
293.15 K, x2 = 0.7408 | 849.7 | 6.103
293.15 K, x2 = 0.8511 | 830.9 | 4.795
293.15 K, x2 = 0.9396 | 816.2 | 4.079
298.15 K, x2 = 0 | 984.3 | 28.59
298.15 K, x2 = 0.081 | 967.8 | 23.43
298.15 K, x2 = 0.1607 | 951.9 | 19.73
298.15 K, x2 = 0.2395 | 936.6 | 16.46
298.15 K, x2 = 0.3499 | 915.6 | 12.59
298.15 K, x2 = 0.4394 | 899 | 10.15
298.15 K, x2 = 0.5602 | 877.2 | 7.634
298.15 K, x2 = 0.658 | 860 | 6.253
298.15 K, x2 = 0.7408 | 845.7 | 5.076
298.15 K, x2 = 0.8511 | 827 | 4.016
298.15 K, x2 = 0.9396 | 812.2 | 3.403
303.15 K, x2 = 0 | 980.3 | 22.31
303.15 K, x2 = 0.081 | 964 | 18.39
303.15 K, x2 = 0.1607 | 948.1 | 15.6
303.15 K, x2 = 0.2395 | 932.7 | 13.11
303.15 K, x2 = 0.3499 | 911.6 | 10.15
303.15 K, x2 = 0.4394 | 895 | 8.261
303.15 K, x2 = 0.5602 | 873.2 | 6.309
303.15 K, x2 = 0.658 | 856 | 5.213
303.15 K, x2 = 0.7408 | 841.7 | 4.261
303.15 K, x2 = 0.8511 | 823 | 3.377
303.15 K, x2 = 0.9396 | 808.2 | 2.853
308.15 K, x2 = 0 | 976.2 | 17.67
308.15 K, x2 = 0.081 | 959.9 | 14.66
308.15 K, x2 = 0.1607 | 944.2 | 12.51
308.15 K, x2 = 0.2395 | 928.7 | 10.58
308.15 K, x2 = 0.3499 | 907.6 | 8.29
308.15 K, x2 = 0.4394 | 890.9 | 6.808
308.15 K, x2 = 0.5602 | 869 | 5.251
308.15 K, x2 = 0.658 | 851.9 | 4.371
308.15 K, x2 = 0.7408 | 837.6 | 3.604
308.15 K, x2 = 0.8511 | 818.9 | 2.866
308.15 K, x2 = 0.9396 | 803.9 | 2.411
313.15 K, x2 = 0 | 972.3 | 14.21
313.15 K, x2 = 0.081 | 956.1 | 11.85
313.15 K, x2 = 0.1607 | 940.2 | 10.16
313.15 K, x2 = 0.2395 | 924.9 | 8.658
313.15 K, x2 = 0.3499 | 903.7 | 6.856
313.15 K, x2 = 0.4394 | 886.9 | 5.676
313.15 K, x2 = 0.5602 | 865 | 4.422
313.15 K, x2 = 0.658 | 847.8 | 3.715
313.15 K, x2 = 0.7408 | 833.5 | 3.07
313.15 K, x2 = 0.8511 | 814.7 | 2.446
313.15 K, x2 = 0.9396 | 799.6 | 2.053
318.15 K, x2 = 0 | 968.5 | 11.58
318.15 K, x2 = 0.081 | 952.4 | 9.715
318.15 K, x2 = 0.1607 | 936.6 | 8.364
318.15 K, x2 = 0.2395 | 921.1 | 7.173
318.15 K, x2 = 0.3499 | 899.8 | 5.733
318.15 K, x2 = 0.4394 | 882.9 | 4.781
318.15 K, x2 = 0.5602 | 860.9 | 3.758
318.15 K, x2 = 0.658 | 843.6 | 3.174
318.15 K, x2 = 0.7408 | 829.3 | 2.634
318.15 K, x2 = 0.8511 | 810.4 | 2.103
318.15 K, x2 = 0.9396 | 795.2 | 1.76
323.15 K, x2 = 0 | 964.9 | 9.546
323.15 K, x2 = 0.081 | 948.9 | 8.057
323.15 K, x2 = 0.1607 | 933 | 6.971
323.15 K, x2 = 0.2395 | 917.5 | 6.012
323.15 K, x2 = 0.3499 | 896.1 | 4.85
323.15 K, x2 = 0.4394 | 879.2 | 4.064
323.15 K, x2 = 0.5602 | 857 | 3.228
323.15 K, x2 = 0.658 | 839.7 | 2.731
323.15 K, x2 = 0.7408 | 825.2 | 2.275
323.15 K, x2 = 0.8511 | 806.1 | 1.82
323.15 K, x2 = 0.9396 | 790.8 | 1.519
